Reference: patent publication US6706663B2, “Herbicidal 3-heterocyclic substituted benzisothiazole and benzisoxazole compounds” (Wyeth, priority 2000, dated 2004)

Tests used:
[1] = system: ABUTH (Abutilon theophrasti); assay: Postemergence herbicidal evaluation; format: in vivo, Medic.
Procedure, shortened: (§1)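 Seedlings grown for about two weeks were sprayed postemergence and then kept under standard greenhouse care. Injury was rated visually 4–5 weeks after treatment on a 0–9 scale against untreated controls, and ratings from repeat tests were averaged.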

[2] = system: AMBEL (Ambrosia artemisifolia); assay: Postemergence herbicidal evaluation; format: in vivo, L.
Procedure, shortened: as §1

[3] = system: CASOB (Cassia obtusifolia); assay: Postemergence herbicidal evaluation; format: in vivo, L.
Procedure, shortened: as §1

[4] = system: CHEAL (Chenopodium album); assay: Postemergence herbicidal evaluation; format: in vivo, L.
Procedure, shortened: as §1

GALAP (Galium aparine) = assay: Postemergence herbicidal evaluation; format: in vivo
Procedure, shortened: as §1

[5] = system: IPOHE (Ipomoea hederacea); assay: Preemergence herbicidal evaluation; format: in vivo, (L.) Jacq.; conditions: preemergence, rated 4-5 weeks after treatment
[6] = system: GLXMAW (Soybean, Williams); assay: Preemergence herbicidal evaluation; format: in vivo, Glycine max, (L.) Merr. cv Williams; conditions: preemergence, rated 4-5 weeks after treatment
ZEAMX (Corn, Field) = assay: Preemergence herbicidal evaluation; format: in vivo, Zea mays, L.; conditions: preemergence, rated 4-5 weeks after treatment
CYPIR (Cyperus iria) = assay: Flooded paddy, preemergence weed control; format: in vivo; conditions: rated 3-4 weeks after treatment, 0-9 rating scale
Procedure, shortened: (§2)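 Under paddy conditions, seeds or vegetative propagules go into the top 0.5 cm of silt loam; the soil is then flooded to 1.5–3 cm and kept so. Treated pots stay in a greenhouse; response is rated 0-9 visually versus control.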

[7] = system: SAGPY (Sagittaria pygmaea); assay: Flooded paddy, preemergence weed control; format: in vivo, L.; conditions: rated 3-4 weeks after treatment, 0-9 rating scale
Procedure, shortened: as §2

ORYSAT (Rice, Tebonnet) = assay: Flooded paddy, post-transplant rice tolerance; format: in vivo, Oryza sativa, (L.) Tebonnet; conditions: flooded paddy, post-transplant rice, rated 3-4 weeks after treatment, 0-9 rating scale
Procedure, shortened: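 Ten-day-old seedlings, 2/pot, silt loam; flood kept 1.5–3 cm over soil; herbicide applied post-transplant; greenhouse; score 0–9 visual vs control.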

Structure (SMILES) | Postemergence herbicidal rating, ABUTH ([1]; rate 0.0320 kg/ha) | Postemergence herbicidal rating, ABUTH ([1]; rate 0.0620 kg/ha) | Postemergence herbicidal rating, AMBEL ([2]; rate 0.0320 kg/ha) | Postemergence herbicidal rating, AMBEL ([2]; rate 0.0620 kg/ha) | Postemergence herbicidal rating, CASOB ([3]; rate 0.0320 kg/ha) | Postemergence herbicidal rating, CASOB ([3]; rate 0.0620 kg/ha) | Postemergence herbicidal rating, CHEAL ([4]; rate 0.0320 kg/ha) | Postemergence herbicidal rating, CHEAL ([4]; rate 0.0620 kg/ha) | Postemergence herbicidal rating, GALAP (GALAP (Galium aparine); rate 0.0320 kg/ha) | Postemergence herbicidal rating, GALAP (GALAP (Galium aparine); rate 0.0620 kg/ha) | IPOHE preemergence herbicidal rating ([5]; Rate 0.0620 kg/ha) | IPOHE preemergence herbicidal rating ([5]; Rate 0.1250 kg/ha) | IPOHE preemergence herbicidal rating ([5]; Rate 0.2500 kg/ha) | GLXMAW preemergence herbicidal rating ([6]; Rate 0.0620 kg/ha) | GLXMAW preemergence herbicidal rating ([6]; Rate 0.1250 kg/ha) | GLXMAW preemergence herbicidal rating ([6]; Rate 0.2500 kg/ha) | ZEAMX preemergence herbicidal rating (ZEAMX (Corn, Field); Rate 0.0620 kg/ha) | ZEAMX preemergence herbicidal rating (ZEAMX (Corn, Field); Rate 0.1250 kg/ha) | ZEAMX preemergence herbicidal rating (ZEAMX (Corn, Field); Rate 0.2500 kg/ha) | herbicidal rating, CYPIR (CYPIR (Cyperus iria); rate 0.0320 kg/ha) | also measured
CCOC(=O)C1CS[C@H](c2nsc3ccc(-n4c(=O)cc(C(F)(F)F)n(C)c4=O)cc23)N1 (stereo partly drawn) [Compound 2, ethyl (R)-2-[5-[3,6-dihydro-3-methyl-2,6-dioxo-4-(trifluoromethyl)-1(2H)-pyrimidinyl]-1,2-benzisothiazol-3-yl]-4-thiazolidinecarboxylate] | 9.0 | 9.0 | 7.0 | 9.0 | 4.0 | 4.0 | 9.0 | 9.0 | 5.0 | 6.0 | 9.0 | 9.0 | 9.0 | 5.5 | 8.0 | 8.0 | 3.5 | 6.5 | 7.5 | 0.0 | herbicidal rating, CYPIR (CYPIR (Cyperus iria); rate 0.1250 kg/ha): 2.0; herbicidal rating, SAGPY ([7]; rate 0.0320 kg/ha): 0.0; herbicidal rating, SAGPY ([7]; rate 0.1250 kg/ha): 0.0; herbicidal rating, ORYSAT (rice tolerance) (ORYSAT (Rice, Tebonnet); rate 0.0320 kg/ha): 1.0; herbicidal rating, ORYSAT (rice tolerance) (ORYSAT (Rice, Tebonnet); rate 0.1250 kg/ha): 4.0
Cn1c(C(F)(F)F)cc(=O)n(-c2ccc3snc(-c4cccs4)c3c2)c1=O [Compound 3, 1-methyl-3-[3-(2-thienyl)-1,2-benzisothiazol-5-yl]-6-(trifluoromethyl)uracil] | 9.0 | 9.0 | 9.0 | 9.0 | 4.0 | 5.0 | 9.0 | 9.0 | 5.0 | 4.0 | 9.0 | 9.0 | 9.0 | 5.5 | 9.0 | 9.0 | 6.5 | 6.5 | 7.0 | 8.5 | Postemergence herbicidal rating, ABUTH ([1]; rate 0.1250 kg/ha): 9.0; Postemergence herbicidal rating, AMBEL ([2]; rate 0.1250 kg/ha): 9.0; Postemergence herbicidal rating, CASOB ([3]; rate 0.1250 kg/ha): 9.0; Postemergence herbicidal rating, CHEAL ([4]; rate 0.1250 kg/ha): 9.0; Postemergence herbicidal rating, GALAP (GALAP (Galium aparine); rate 0.1250 kg/ha): 6.0; herbicidal rating, CYPIR (CYPIR (Cyperus iria); rate 0.0080 kg/ha): 0.0; herbicidal rating, CYPIR (CYPIR (Cyperus iria); rate 0.1250 kg/ha): 9.0; herbicidal rating, SAGPY ([7]; rate 0.0080 kg/ha): 0.0; herbicidal rating, SAGPY ([7]; rate 0.0320 kg/ha): 1.0; herbicidal rating, SAGPY ([7]; rate 0.1250 kg/ha): 5.5; herbicidal rating, ORYSAT (rice tolerance) (ORYSAT (Rice, Tebonnet); rate 0.0080 kg/ha): 3.0; herbicidal rating, ORYSAT (rice tolerance) (ORYSAT (Rice, Tebonnet); rate 0.0320 kg/ha): 3.5; herbicidal rating, ORYSAT (rice tolerance) (ORYSAT (Rice, Tebonnet); rate 0.1250 kg/ha): 5.5
Cc1ccsc1-c1nsc2ccc(-n3c(=O)cc(C(F)(F)F)n(C)c3=O)cc12 [Compound 4, 1-methyl-3-[3-(3-methyl-2-thienyl)-1,2-benzisothiazol-5-yl]-6-(trifluoromethyl)uracil] | 9.0 | 9.0 | 8.1 | 8.3 | 5.2 | 6.2 | 9.0 | 9.0 | 3.3 | 6.0 | 4.7 | 6.3 | 7.6 | 2.7 | 4.4 | 6.0 | 3.2 | 4.2 | 5.4 | 9.0 | Postemergence herbicidal rating, ABUTH ([1]; rate 0.1250 kg/ha): 9.0; Postemergence herbicidal rating, AMBEL ([2]; rate 0.1250 kg/ha): 9.0; Postemergence herbicidal rating, CASOB ([3]; rate 0.1250 kg/ha): 9.0; Postemergence herbicidal rating, CHEAL ([4]; rate 0.1250 kg/ha): 9.0; Postemergence herbicidal rating, GALAP (GALAP (Galium aparine); rate 0.1250 kg/ha): 8.3; herbicidal rating, CYPIR (CYPIR (Cyperus iria); rate 0.0080 kg/ha): 2.0; herbicidal rating, CYPIR (CYPIR (Cyperus iria); rate 0.1250 kg/ha): 9.0; herbicidal rating, SAGPY ([7]; rate 0.0080 kg/ha): 0.0; herbicidal rating, SAGPY ([7]; rate 0.0320 kg/ha): 2.0; herbicidal rating, SAGPY ([7]; rate 0.1250 kg/ha): 5.5; herbicidal rating, ORYSAT (rice tolerance) (ORYSAT (Rice, Tebonnet); rate 0.0080 kg/ha): 2.0; herbicidal rating, ORYSAT (rice tolerance) (ORYSAT (Rice, Tebonnet); rate 0.0320 kg/ha): 3.5; herbicidal rating, ORYSAT (rice tolerance) (ORYSAT (Rice, Tebonnet); rate 0.1250 kg/ha): 4.0
Cn1ccnc1-c1nsc2ccc(-n3c(=O)cc(C(F)(F)F)n(C)c3=O)cc12 [Compound 5, 1-methyl-3-[3-(1-methylimidazol-2-yl)-1,2-benzisothiazol-5-yl]-6-(trifluoromethyl)uracil] | 9.0 | 9.0 | 2.0 | 9.0 | 0.0 | 2.0 | 0.0 | 2.0 | 0.0 | 4.0 | 4.0 | 9.0 | 9.0 | 2.0 | 3.5 | 6.5 | 4.0 | 6.5 | 7.0 | 0.0 | herbicidal rating, CYPIR (CYPIR (Cyperus iria); rate 0.1250 kg/ha): 7.0; herbicidal rating, SAGPY ([7]; rate 0.0320 kg/ha): 0.0; herbicidal rating, SAGPY ([7]; rate 0.1250 kg/ha): 0.0; herbicidal rating, ORYSAT (rice tolerance) (ORYSAT (Rice, Tebonnet); rate 0.0320 kg/ha): 2.0; herbicidal rating, ORYSAT (rice tolerance) (ORYSAT (Rice, Tebonnet); rate 0.1250 kg/ha): 3.0
